Reference: US9695155B2, “Herbicidal substituted pyrimidinyloxy benzene compounds” (E. I. DU PONT DE NEMOURS AND COMPANY, priority 2013, dated 2017)

Columns and labels:
[1] = test system: johnsongrass; test: Test C postemergence; format: in vivo, Sorghum halepense
Outline: (§1)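 Seeds were sown in loam–sand blend and sprayed preemergence, while plants at 1- to 4-leaf stage (2–18 cm) in peat-based medium received postemergence sprays; test chemicals were formulated in a non-phytotoxic solvent with surfactant. After 13–15 days in a greenhouse, injury was rated visually against controls, 0 (no effect) to 100 (complete control).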

[2] = test system: wheat, winter; test: Test C postemergence; format: in vivo, Triticum aestivum
Outline: as §1

[3] = test system: pigweed; test: Test A postemergence; format: in vivo, Amaranthus retroflexus; settings: 1000 g ai/ha, 0 to 100 scale, 0 no effect, 100 complete control
Outline: (§2)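 Visual 0–100 rating (100 = complete control) taken about 10 d post-treatment relative to untreated checks. Preemergence: directed soil spray on sown loam/sand pots. Postemergence: seedlings 2–10 cm, 1–2 leaf. Non-phytotoxic solvent formulation with surfactant.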

[4] = test system: corn; test: Test C postemergence; format: in vivo, Zea mays
Outline: as §1

[5] = test system: Heteranthera limosa; test: Test B flooded paddy test; format: in vivo; settings: Flood, 250 g ai/ha; 0 to 100 scale where 0 is no effect and 100 is complete control
Outline: (§3)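 Plants at 2-leaf stage; pots flooded to 3 cm above soil and compound applied directly into paddy water, depth held throughout. After 13 to 15 days in greenhouse, visual rating versus controls on 0 (no effect) to 100 (complete control) scale.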

[6] = test system: oilseed rape; test: Test C postemergence; format: in vivo, Brassica napus
Outline: as §1

[7] = test system: velvetleaf; test: Test A preemergence; format: in vivo, Abutilon theophrasti; settings: 1000 g ai/ha, 0 to 100 scale, 0 no effect, 100 complete control, approx. 10 days
Outline: as §2

[8] = test system: barnyardgrass; test: Test B flooded paddy test; format: in vivo, Echinochloa crus-galli; settings: Flood, 250 g ai/ha; 0 to 100 scale where 0 is no effect and 100 is complete control
Outline: as §3

[9] = test system: pigweed; test: Test A preemergence; format: in vivo, Amaranthus retroflexus; settings: 1000 g ai/ha, 0 to 100 scale, 0 no effect, 100 complete control, approx. 10 days
Outline: as §2

[10] = test system: morningglory; test: Test A postemergence; format: in vivo, Ipomoea spp.; settings: 1000 g ai/ha, 0 to 100 scale, 0 no effect, 100 complete control
Outline: as §2

[11] = test system: chickweed; test: Test C postemergence; format: in vivo, Stellaria media
Outline: as §1

[12] = test system: waterhemp; test: Test C postemergence; format: in vivo, Amaranthus rudis
Outline: as §1

[13] = test system: large (Lg) crabgrass; test: Test C postemergence; format: in vivo, Digitaria sanguinalis
Outline: as §1

[14] = test system: sedge, umbrella; test: Test B flooded paddy test; format: in vivo, Cyperus difformis; settings: Flood, 250 g ai/ha; 0 to 100 scale where 0 is no effect and 100 is complete control
Outline: as §3

[15] = test system: barnyardgrass; test: Test C postemergence; format: in vivo, Echinochloa crus-galli
Outline: as §1

[16] = 16 g ai/ha, postemergence, 0 is no effect, 100 is complete control
[17] = 31 g ai/ha, postemergence, visual rating, scale 0 to 100 (0 no effect, 100 complete control), 13 to 15 days
[18] = 125 g ai/ha, postemergence, visual rating, scale 0 to 100 (0 no effect, 100 complete control)
[19] = Postemergence, 62 g ai/ha, scale 0 to 100 (0 no effect, 100 complete control), 13 to 15 days

SMILES: Clc1cnc(Oc2ccccc2-n2cc(Br)nn2)nc1 [Compound 223]
- Plant response rating (0 to 100), Johnsongrass [1, 16]: 0
- Johnsongrass plant response rating [1, 17]: 0
- Plant response rating, Johnsongrass [1, 18]: 5
- Plant response rating, Johnsongrass [1, 19]: 0
- Plant response rating (0 to 100), Wheat [2, 16]: 0
- Wheat plant response rating [2, 17]: 0
- Plant response rating, Wheat [2, 18]: 5
- Plant response rating, Wheat [2, 19]: 0
- Plant response rating, Pigweed [3]: 100
- Plant response rating (0 to 100), Corn [4, 16]: 5
- Corn plant response rating [4, 17]: 5
- Plant response rating, Corn [4, 18]: 5
- Plant response rating, Corn [4, 19]: 5
- Plant response rating, Ducksalad [5]: 90
- Plant response rating (0 to 100), Oilseed Rape [6, 16]: 10
- Oilseed Rape plant response rating [6, 17]: 50
- Plant response rating, Oilseed Rape [6, 18]: 85
- Plant response rating, Oilseed Rape [6, 19]: 80
- Velvetleaf plant response rating [7]: 100
- Plant response rating, Barnyardgrass [8]: 35
- Pigweed plant response rating [9]: 100
- Plant response rating, Morningglory [10]: 100
- Plant response rating (0 to 100), Chickweed [11, 16]: 35
- Chickweed plant response rating [11, 17]: 50
- Plant response rating, Chickweed [11, 18]: 60
- Plant response rating, Chickweed [11, 19]: 50
- Plant response rating (0 to 100), Waterhemp [12, 16]: 70
- Waterhemp plant response rating [12, 17]: 60
- Plant response rating, Waterhemp [12, 18]: 95
- Plant response rating, Waterhemp [12, 19]: 85
- Plant response rating (0 to 100), Crabgrass, Large [13, 16]: 5
- Crabgrass, Large plant response rating [13, 17]: 5
- Plant response rating, Crabgrass, Large [13, 18]: 5
- Plant response rating, Crabgrass, Large [13, 19]: 5
- Plant response rating, Sedge, Umbrella [14]: 85
- Plant response rating (0 to 100), Barnyardgrass [15, 16]: 0
- Barnyardgrass plant response rating [15, 17]: 0
- Plant response rating, Barnyardgrass [15, 18]: 5
- Plant response rating, Barnyardgrass ([15]; Postemergence, 62 g ai/ha, scale 0 to 100 (0 no effect, 100 complete control)): 5
